Laboratory results taken from patent publication US8859625B2, “Methods to prepare penta-1,4-dien-3-ones and substituted cyclohexanones and derivatives with antitumoral and antiparasitic properties, the compounds and their uses” (Universidade Bandeirante de Sao Paulo-Academia, Paulista …, priority 2006, dated 2014).
In brackets after ≈: the same amount, converted by molar mass.

Columns and labels:
[1] = tested on: B16F10 melanoma; assay: B16F10 melanoma tumors implanted in C57BL/6J mice, intraperitoneal treatment; tumor area and volume; type: in vivo; conditions: diluted in Miglyol 810, intraperitoneal 1.15 μg/kg daily, to Day 14; tumor volume and area
Experimental: After the Day 4 of tumor cells implant (2×10^5 tumoral cells/mL), the animals were splitted in two groups: the test group, treated with HB-1 compound diluted in Miglyol 810® and the control group, which received only the diluent (Miglyol 810®) in the same volume as the test group. The animals were daily treated by intraperitoneal route. Concomitantly, measurements of animal weight and tumor size (two measures—length×width) were performed and tumor aspect registered by photographies.
After the Day 14, the animals were sacrificed by cervical displacement, tumors were removed, and necropsy performed to remove all internal organs and macroscopic lesions for hystopathologic analysis.
Tumoral parameters were obtained by calculation of tumor average area (A) and volume (V), through the following formulas A=πR^2 and V=4/3πR^3, where (R=average tumor radius). […]
After tumoral cell implant, the animals were treated with the HB-2 compound diluted in Miglyol 810® and with (HB2+HB-1) conjugate whereas the control group received the same volume of diluent and by the same administration route (intraperitoneal—100 μl). Daily, the animals received the compounds (100 μl) and the control group received Miglyol 810®, the animals were weighted, and the tumors were measured (length×width) and photographed. […]

[2] = tested on: peritoneal normal macrophages; assay: Cytotoxic effect on peritoneal normal macrophages by the MTT method; type: cell-based, Balb-C mice; conditions: Mus musculus, Macrophage, diluted in Miglyol 810, 24 hours
Experimental: Cytotoxic Effect of HB-1 Compound on Peritoneal Normal Macrophages Assessed by the MTT Method.
Peritoneal macrophages were obtained from normal Balb-C mice through the following procedure: abdominal cavities of the animals were opened under sterile conditions under a laminar flow and exposed. A 2 mL volume of saline solution, containing 5000 U frosty heparin (Liquemine-Roche), was injected into the cavity, followed by a massage and collection of the peritoneal wash irrigation liquid, centrifuged at 2000 rpm for 10 minutes at 4° C.
The suspension was resuspended with RPMI-1640 culture medium supplemented with 10% bovine fetal serum, with the count cell number adjusted to 10^6/mL in a Neubauer chamber. Aliquots of the macrophages were cultivated on plates with 96 flat bottom wells, incubated with and without HB-1 compound diluted in Miglyol 810®. After 24 hours, the plates were submitted to the cytotoxic and antiproliferative effect assessment by the MTT calorimetric method.

For `COc1cc(C=CC(=O)C=Cc2ccc(O)c(OC)c2)ccc1O` [HB-1, 1,5-Bis-(4-hydroxy-3-methoxy-phenyl)-penta-1,4-dien-3-one], the “percentage of inhibitory treatment for B16F10 melanoma” value [1] was “higher than 98%” and the IC50 [2] was 16.9 µg/mL (≈ 51.8 µM).
